Reference: patent US10329304B2, “Compounds and methods for inhibition of hedgehog signaling and phosphodiesterase” (Vanderbilt University, priority 2014, dated 2019)
“Also recorded” adds a separate entry of the source. Like-named read-outs stand apart in the source and are kept apart here.

What was measured:
[1] = system: IFT88 localization; experiment: IFT88 immunostaining in NIH3T3 cells; format: cell-based; details: EGM 5 μM, ciliobrevin D 100 μM
From the text: To investigate whether the disruption of the cilium-to-nucleus trafficking of Gli2 by eggmanone was due to a general defect in the retrograde transport within the primary cilium, we compared the effect of the cytoplasmic dynein motor inhibitor ciliobrevin D with the effect of eggmanone on the intraflagellar transport protein 88 (IFT88) trafficking^19. […] Thus, the effects of eggmanone on Gli2 trafficking is specific, rather than an indirect consequence of a global defect in ciliary transport machinery.

[2] = system: Hedgehog signaling (TM3-Gli-Luc); experiment: TM3-Gli-Luc luciferase reporter assay stimulated with 20 nM SAG; format: cell-based
How it was run: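 Luciferase read-out divided by CellTiter-Glo viability, minus DMSO/no-SAG baseline, expressed relative to 20 nM SAG alone. Cells exposed to compound with SAG for 48 h at 37 °C in 2.5% FBS DMEM/F12 on gelatin. EC50 ±SEM from at least two separate-day runs.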

[3] = Lipophilic efficiency (LipE = pEC50 − cLogP) and cLogP
How it was run: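 pEC50 came from TM3-Gli-Luc Gli-responsive luciferase reporter cells stimulated with 20 nM SAG, with non-specific cytotoxicity monitored in parallel. LipE was calculated by subtracting cLogP from pEC50.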

[4] = system: TM3-Gli-Luc cells; experiment: TM3-Gli-Luc cell viability (Cell Titer Glo, LD50); format: cell-based
Method: On the day of cell plating, 96-well plates were coated with 50 μL/well of sterile 0.1% gelatin for 5 minutes then aspirated and replaced with 50 μL/well of TM3 Culture Medium. TM3-Gli-Luc cells were seeded at a density of 5,000 cells/well in TM3 Culture Medium and incubated for 24 hours. A master mix of 20 nM SAG in TM3Luc Medium was prepared, and small molecule solutions were prepared by adding the desired amount of compound from 10 mM DMSO stock to TM3Luc Medium containing 20 nM SAG. Negative control was prepared by adding an equi-volume amount of DMSO as compared to small molecule treated conditions to TM3Luc Medium not containing SAG. Cell plating medium was aspirated and replaced with 100 μL/well of prepared small molecule-containing media, and plates were incubated for 48 hours before proceeding to luciferase activity and cell viability reading.
TM3Luc Medium from compound treated plates was aspirated and replaced with 82 μL/well of Glo Lysis Buffer (Promega, Madison, Wis., USA), and plates were shaken at 300 rpm and room temperature for 12 minutes. Lysate was split between two white 96-well plates, 45 μL/well and 25 μL/well for luciferase reading and cell viability respectively. For luciferase activity monitoring, 45 μL/well of Steady Glo (Promega, Madison, Wis., USA) was added to 45 μL/well of cell lysate, incubated at room temperature for 5 minutes, then luminescence was measured on a Turner Biosystems Modulus Microplate Reader (Sunnyvale, Calif., USA) with an integration time of 0.5 seconds. For cell viability measurement, 25 μL/well of Cell Titer Glo (Promega, Madison, Wis., USA) (prepared by 1:10 dilution with Glo Lysis Buffer) was added to 25 μL/well of cell lysate, incubated at room temperature for 5 minutes, then luminescence was measured as above.
All raw data was divided by the average of positive control cell titer data to arrive at percent cells remaining compared to positive control. […] At least two independent assays tested on separate days were averaged to provide LD50±standard error of the mean.

[5] = system: Gli1 transcription; experiment: Sufu−/− mouse embryonic fibroblasts qRT-PCR; format: cell-based; details: Gli1 and Ptch1
From the text: In light of EGM1's ability to halt Hh transcriptional activity at a node downstream of the negative regulator Sufu, and thus also downstream of Smo, we sought to confirm mode of action retention with our most promising analogs. Therefore, we employed Sufu−/− mouse embryonic fibroblasts (MEF) that display constitutively active transcription of Hh target genes Gli1 and Ptch1 and monitored the ability of our optimized analogs to repress signaling via quantitative reverse transcription-PCR (qRT-PCR). […] We then evaluated improved analogs from multiple structural classes including those from Table 1 with cyclohexylthiophene cores as well as from Table 13 with structurally distinct core modifications.
Sufu^−/− cells were seeded into 12-well plates at a density of 100,000 cells/well in D10 FBS and incubated for 24 hours. Small molecule solutions were prepared by adding the desired amount of compound from 10 mM DMSO stock to D0.5 FBS. Negative control was prepared by adding an equi-volume amount of DMSO to D0.5 FBS as compared to small molecule treated conditions. Cell plating medium was aspirated and replaced with 1 mL of prepared small molecule-containing media, and plates were incubated for 24 hours before proceeding to RNA isolation.
Cells were washed 1× with 1× phosphate-buffered saline (PBS) then RNA was isolated using the Qiagen RNeasy Mini Kit (Qiagen, Germantown, Md., USA) according to the manufacturer's protocol, eluting RNA from the spin column with 30 μL of RNase-free water. RNA was placed on ice and immediately subjected to reverse transcription. Remaining RNA was stored at −80° C.
Reverse transcription polymerase chain reaction (RT-PCR) was performed with the Applied Biosystems High Capacity cDNA Reverse Transcription Kit (ThermoFisher Scientific, Waltham, Mass., USA) using an Eppendorf MasterCycler. Each 20 μL reaction contained 0.5 μg of total RNA, 2 μL of 10×RT Buffer, 0.8 μL of 25×dNTP Mix (100 mM), 2 μL of 10×RT Random Primers, 1 μL of MultiScribe® Reverse Transcriptase (50 U/μL), 1 μL of Recombinant RNasin® Ribonuclease Inhibitor (40 U/μL) (Promega, Madison, Wis., USA), and nuclease-free water. Reverse transcription was performed with the following program: 25° C. for 10 minutes, 37° C. for 120 minutes, and 85° C. for 5 minutes. The cDNA was subjected to quantitative real-time PCR (Q-PCR) or stored at −20° C.
Quantitative real-time PCR was performed on an Applied Biosystems 7900 HT Fast Real Time PCR System in 384-well format. Each cDNA sample was assayed in triplicate with both probe of interest and control probe. Master mixes for each probe were prepared corresponding to 10 μL of Applied Biosystems TaqMan Universal PCR Master Mix (ThermoFisher Scientific, Waltham, Mass., USA), 1 μL of primer, and nuclease-free water corresponding to a volume providing 20 μL reactions when loading an average of 50 ng of cDNA. Quantitative real-time PCR was run with the following thermal cycling protocol: 50° C. for 2 min., 95° C. for 10 min., and 40 cycles of 95° C. for 15 seconds, 60° C. for 1 min., then fluorescence reading. The following FAM probes were purchased from Life Technologies (Carlsbad, Calif., USA): mouse GAPDH, Mm99999915_g1; mouse Gli1, Mm00494646_g1; mouse Ptch1, Mm01306905_m1.
Quantitative real-time PCR data for Hh signaling inhibition was quantitated using the ΔΔCt method. Control probe values were subtracted from probe of interest values to arrive at the ΔCt value. The ΔCt value was transformed by 2-^ΔCt to arrive at the ΔΔCt value. All ΔΔCt values were divided by the average negative control ΔΔCt value to provide percent Hh signaling activity. Percent inhibition values were derived by calculating the inverse of percent activity. Data is reported as mean±standard error of the mean (SEM), representing at least two biological replicates, each quantitated in triplicate.

[6] = molecular target: T1, Smo cyclopamine (Cyc) binding site (Homo sapiens, UniProt Q99835); experiment: BODIPY-cyclopamine competition in HEK-293T cells overexpressing Smo; details: KAAD-Cyc 200 nM; analogs at 10- to 20-fold their EC50s
T1 construct: expressed in transfected cells; host or cells: HEK-293T
T1 sequence (Q99835 28-787): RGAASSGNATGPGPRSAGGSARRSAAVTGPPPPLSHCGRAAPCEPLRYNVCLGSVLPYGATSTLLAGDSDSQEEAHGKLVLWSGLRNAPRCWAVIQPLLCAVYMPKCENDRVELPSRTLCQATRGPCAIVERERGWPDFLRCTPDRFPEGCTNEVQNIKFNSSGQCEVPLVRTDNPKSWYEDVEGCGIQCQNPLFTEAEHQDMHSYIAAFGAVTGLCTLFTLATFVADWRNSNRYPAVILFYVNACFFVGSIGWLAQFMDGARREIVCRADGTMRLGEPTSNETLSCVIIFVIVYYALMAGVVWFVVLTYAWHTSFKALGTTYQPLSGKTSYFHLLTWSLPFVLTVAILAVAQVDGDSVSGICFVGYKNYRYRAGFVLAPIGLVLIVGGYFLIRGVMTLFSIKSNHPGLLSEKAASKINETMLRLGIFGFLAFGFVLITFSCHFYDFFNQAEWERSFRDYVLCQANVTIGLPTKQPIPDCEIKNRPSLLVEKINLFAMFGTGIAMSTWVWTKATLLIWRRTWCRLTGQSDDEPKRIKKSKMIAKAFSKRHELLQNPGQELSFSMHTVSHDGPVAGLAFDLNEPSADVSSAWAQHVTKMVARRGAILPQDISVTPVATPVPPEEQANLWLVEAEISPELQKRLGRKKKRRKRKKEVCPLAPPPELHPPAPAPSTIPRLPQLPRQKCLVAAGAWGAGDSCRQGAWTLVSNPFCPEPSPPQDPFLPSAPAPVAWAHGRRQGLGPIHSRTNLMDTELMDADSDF
Method: Thus, HEK-293T cells overexpressing Smo were concurrently treated with 5 nM BODIPY-Cyc and molecules of interest.

[7] = molecular target: consensus PDE4D sequence (Homo sapiens, UniProt Q08499); experiment: PDE4D inhibition (consensus PDE4D sequence); format: biochemical
consensus PDE4D sequence, sequence (Q08499 whole entry): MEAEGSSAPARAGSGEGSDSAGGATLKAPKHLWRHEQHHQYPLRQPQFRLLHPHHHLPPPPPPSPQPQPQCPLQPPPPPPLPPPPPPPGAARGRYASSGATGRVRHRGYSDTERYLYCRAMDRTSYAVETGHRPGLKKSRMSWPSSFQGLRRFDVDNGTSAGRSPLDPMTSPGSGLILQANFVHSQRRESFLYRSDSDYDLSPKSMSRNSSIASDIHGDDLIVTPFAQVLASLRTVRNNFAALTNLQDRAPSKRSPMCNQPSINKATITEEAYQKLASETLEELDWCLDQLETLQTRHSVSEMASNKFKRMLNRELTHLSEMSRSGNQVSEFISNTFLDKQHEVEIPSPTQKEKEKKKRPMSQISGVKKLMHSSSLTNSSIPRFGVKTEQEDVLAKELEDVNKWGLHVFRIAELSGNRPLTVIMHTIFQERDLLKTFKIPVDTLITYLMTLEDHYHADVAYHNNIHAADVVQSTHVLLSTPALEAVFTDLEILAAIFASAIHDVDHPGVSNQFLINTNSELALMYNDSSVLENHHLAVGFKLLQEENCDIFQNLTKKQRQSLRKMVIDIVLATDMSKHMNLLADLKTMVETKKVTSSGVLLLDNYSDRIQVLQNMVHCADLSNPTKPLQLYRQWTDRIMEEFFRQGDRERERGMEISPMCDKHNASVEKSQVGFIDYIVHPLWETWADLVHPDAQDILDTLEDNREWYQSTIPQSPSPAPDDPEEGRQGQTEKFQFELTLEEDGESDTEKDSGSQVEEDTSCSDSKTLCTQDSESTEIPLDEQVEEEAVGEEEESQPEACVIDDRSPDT

[8] = molecular target: PDE4D (Homo sapiens, UniProt Q08499); experiment: PDE4 inhibition assay (PDE4D IC50); format: biochemical; details: mean ± SEM, normalized to DMSO; read-out: PDE4D IC50
PDE4D, sequence (Q08499 whole entry): as above
How it was run: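 Duplicate 60 min room-temperature reactions hold 100 nM FAM-cAMP substrate, PDE4D enzyme and test compound at 1% final DMSO in pH7.4 Tris buffer. Product FAM-AMP captured by bead binding agent (60 min), with fluorescence read at excitation 485, emission 528 nm.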

[9] = TM3-Gli-Luc reporter line stimulated with 20 nM SAG, mean ± SEM, Table 14, read-out: TM3-Gli-Luc EC50
[10] = TM3-Gli-Luc reporter line stimulated with 20 nM SAG, mean ± SEM, Table 13, read-out: TM3-Gli-Luc EC50
[11] = calculated as pEC50 - cLogP (Molinspiration Cheminformatics), Table 13

EC50 [2, 10]	LipE [3, 11]	Compound	EC50 [2, 9]	LipE ([3]; pEC50 - cLogP, Table 14)	Transcriptional inhibition in the Sufu−/− cell line, in words [5]	Displacement of BODIPY-cyclopamine (5 nM) from Smo [6]	PDE4D inhibition in words [7]	other results
–	–	N#CC(=C(O)c1ccc(Cl)cc1Cl)c1nc2cc(Cl)ccc2c(=O)[nH]1 [Ciliobrevin D, reference compound]	–	–	–	–	–	IFT88 localization in the cilium [1]: perturbed the localization of IFT88 in the cilium; IFT88 localization in the cilium ([1]; listed as ciliobrevin D): severely disrupted the IFT88 localization in the cilium
–	–	C=C(C)Cn1c(SCC(=O)N2CCCCC2C)nc2sc3c(c2c1=O)CCCC3 (stereo not shown) [Formula 9m]	2320 ± 730 nM	0.94	general ability to inhibit transcriptional activity	–	–	reduction in potency versus EGM1 [2]: ~2 fold; EC50 ([2]; 20 nM SAG, mean ± standard error of the mean, read-out: TM3-Gli-Luc EC50): 2320 ± 730 nM; LipE ([3]; Calculated as pEC50 - cLogP, Molinspiration Cheminformatics): 0.94; LD50 [4]: 16.7 µM; TM3-Gli-Luc LD50 ([4]; mean ± standard error of the mean): 16.7 ± 0.25 µM
685 ± 20 nM	2.78	O=C(CSc1nc2ccccc2c(=O)n1C1CC1)c1cccs1 [Formula 14b]	685 ± 20 nM	2.78	lack of Sufu−/− transcriptional inhibition	do not displace the binding of BODIPY-cyclopamine; also recorded: failed to compete for the Smo binding site	–	Hh inhibitory activity / potency in words ([2]; 20 nM SAG): potency improvements over EGM1; EC50 ([2]; 20 nM SAG, read-out: EC50): 685 nM
933 ± 100 nM	2.89	O=C(CSc1nc2sccc2c(=O)n1C1CC1)c1cccs1 [Formula 19b]	933 ± 100 nM	2.89	lack of Sufu−/− transcriptional inhibition	do not displace the binding of BODIPY-cyclopamine; also recorded: failed to compete for the Smo binding site	–	–
–	–	O=c1c2ccsc2nc(SCC(O)c2ccccc2)n1C1CC1 (stereo not shown) [Formula 20a]	–	3.41	lack of Sufu−/− transcriptional inhibition	do not displace the binding of BODIPY-cyclopamine; also recorded: failed to compete for the Smo binding site	only modest ICs against PDE4D	IC50 [8]: 6070 ± 1500 nM

Compound	EC50 [2, 10]	LipE [3, 11]	EC50 [2, 9]	LipE ([3]; pEC50 - cLogP, Table 14)	Transcriptional inhibition in the Sufu−/− cell line, in words [5]	Displacement of BODIPY-cyclopamine (5 nM) from Smo [6]	PDE4D inhibition in words [7]	other results
O=C(CSc1nc2sccc2c(=O)n1C1CC1)c1ccccc1 [Formula 19c]	82 ± 10 nM	3.84	82 ± 10 nM	3.84	lack of Sufu−/− transcriptional inhibition	do not displace the binding of BODIPY-cyclopamine; also recorded: failed to compete for the Smo binding site	only modest ICs against PDE4D	Non-specific cellular toxicity [4]: no non-specific cellular toxicity
